# In article PMC8428568, “Discovery of re-purposed drugs that slow SARS-CoV-2 replication in human cells” (PLoS Pathogens, 2021):
# Where a name gives a salt, the structure may show the parent alone. Read-outs that look alike come from different tables or passages of the source.
# Experiments:
# [1] = system: SARS-CoV-2-ΔOrf7a-NLuc virus; experiment: microbe, parasite or virus in culture; assay type: cell-based
# recombinant NLuc = assay type: biochemical
# [2] = recombinant NLuc activity relative to DMSO
# [3] = recombinant NLuc, first read column
# [4] = recombinant NLuc, fourth read column
# [5] = recombinant NLuc, third read column
SMILES,% activity in Vero 100PFU screen [1] [%],Relative Recombinant NLUC (recombinant NLuc; [2]),Reads Counts per second (read 1) (recombinant NLuc; [3]) [Counts per second],Reads Counts per second (read 4) (recombinant NLuc; [4]) [Counts per second],Reads Counts per second (read 2) (recombinant NLuc; recombinant NLuc) [Counts per second],Reads Counts per second (read 3) (recombinant NLuc; [5]) [Counts per second],"activity at 10 µM ([1]; Severe acute respiratory syndrome coronavirus 2, Vero, 72 h, […], 1 = untreated, 0 = total inhibition, read-out: Mean relative luminescence (n=4)) [%]",Reads Counts per second (read 1) (recombinant NLuc) [Counts per second],Reads Counts per second (read 3) (recombinant NLuc) [Counts per second],Reads Counts per second (read 4) (recombinant NLuc) [Counts per second],Relative Recombinant NLUC (recombinant NLuc)
"C=CCNC1=C2C[C@@H](C)C[C@H](OC)[C@H](O)[C@@H](C)/C=C(\C)[C@H](OC(N)=O)[C@@H](OC)/C=C\C=C(/C)C(=O)NC(=CC1=O)C2=O [17-AAG (KOS953), 17-AAG]",209,0.9121,339450,348179,347084,343744,–,–,–,–,–
OB1OCc2cc(F)ccc21 [AN-2690],171,0.8709,329173,324160,329953,332892,–,–,–,–,–
CC(C)c1cc(C(=O)N2Cc3ccc(CN4CCN(C)CC4)cc3C2)c(O)cc1O [AT13387],191,0.7978,289397,303901,302902,309451,–,–,–,–,–
Cn1c(=O)cc(N2CCC[C@@H](N)C2)n(Cc2ccccc2C#N)c1=O [Alogliptin Benzoate],166,0.863,316906,323679,332493,331161,–,–,–,–,–
Cc1[nH]cnc1CN1CCc2c(c3ccccc3n2C)C1=O [Alosetron Hydrochloride],177,0.8898,328498,339698,338671,337783,–,–,–,–,–
C[C@H]1CN(C[C@H](Cc2ccccc2)C(=O)NCC(=O)O)CC[C@@]1(C)c1cccc(O)c1 [Alvimopan],169,0.9202,338215,352328,350063,350082,–,–,–,–,–
"CC[C@@H]1/C=C(\C)C[C@H](C)C[C@H](OC)[C@H]2O[C@@](O)(C(=O)C(=O)N3CCCC[C@H]3C(=O)O[C@H](/C(C)=C/[C@@H]3CC[C@@H](O)[C@H](OC)C3)[C@H](C)[C@@H](O)CC1=O)[C@H](C)C[C@@H]2OC [Ascomycin(FK 520), Ascomycin]",171,0.8402,312887,314498,325360,316950,–,–,–,–,–
O=C(O)[C@H]1O[C@@H](Oc2cc3oc(-c4ccccc4)cc(=O)c3c(O)c2O)[C@H](O)[C@@H](O)[C@@H]1O [Baicalin],164,0.9439,353023,357276,358945,357158,–,–,–,–,–
CCS(=O)(=O)N1CC(CC#N)(n2cc(-c3ncnc4[nH]ccc34)cn2)C1 [Baricitinib phosphate],199,0.9095,337511,349331,341167,346435,–,–,–,–,–
CC(C)(C)NC(=O)N[C@H](C(=O)N1C[C@H]2[C@@H]([C@H]1C(=O)NC(CC1CCC1)C(=O)C(N)=O)C2(C)C)C(C)(C)C (stereo partly shown) [Boceprevir],178,0.9177,341877,349417,348889,346623,–,–,–,–,–
O=C(O)/C=C/c1ccc(O)c(O)c1 [Caffeic acid],173,1.054,390077,403178,–,399891,–,–,–,–,–
O=C(O)COCCN1CCN(C(c2ccccc2)c2ccc(Cl)cc2)CC1 (stereo not shown) [Cetirizine],161,0.4486,170134,171706,–,168670,–,–,–,–,–
O=c1c(-c2ccc(O)cc2)coc2cc(O)ccc12 [Daidzein],161,0.9154,339091,346126,–,350216,–,–,–,–,–
CC(C)(C)c1ccc(C(=O)CCCN2CCC(OC(c3ccccc3)c3ccccc3)CC2)cc1 [Ebastine],–,–,323732,326603,–,324560,0.793,–,–,–,–
O=S(=O)(O)c1cc(O)ccc1O [Ethamsylate],167,1.029,388357,386776,–,391647,–,–,–,–,–
CNCCC(Oc1ccc(C(F)(F)F)cc1)c1ccccc1.Cl (stereo not shown) [Fluoxetine HCl],2.12,–,317425,307707,–,314163,–,–,–,–,–
NC(=O)CC[C@H](N)C(=O)O [L-Glutamine],204,0.9419,349150,350740,–,361792,–,–,–,–,–
N[C@@H](Cc1ccc(O)c(O)c1)C(=O)O [Levodopa],233,0.839,304150,316577,–,322065,–,–,–,–,–
O=C([O-])CC(O)(CC(=O)[O-])C(=O)[O-].[Li+].[Li+].[Li+] [Lithium Citrate],205,0.9217,343238,343490,–,350985,–,–,–,–,–
C[C@H](CCC(=O)O)[C@H]1CC[C@H]2[C@@H]3CC[C@@H]4C[C@H](O)CC[C@]4(C)[C@H]3CC[C@]12C [Lithocholic Acid],205,0.9342,350340,353302,–,350189,–,–,–,–,–
"Cc1cnc(NC(=O)C2=C(O)c3ccccc3S(=O)(=O)N2C)s1 [Meloxicam (Mobic), Meloxicam]",178,0.824,308460,312953,–,309204,–,–,–,–,–
C[N+]1(C)CCCC(OC(=O)C(O)(c2ccccc2)c2ccccc2)C1 (stereo not shown) [Mepenzolate Bromide],175,–,–,–,–,–,–,330221,339233,336213,0.8896
